Measured values reported in ChEMBL document CHEMBL3400008, “Potent and selective Bruton's tyrosine kinase inhibitors: discovery of GDC-0834” (Bioorg Med Chem Lett, 2015).
In brackets after ≈: the same amount, converted by molar mass. Values belong to the molecule of their own block, whether it stands above or below them.

Key:
[1] = molecular target: Tyrosine-protein kinase BTK (Mus musculus, UniProt P35991)
[2] = Clearance in dog; assay type: ADME, organism-based, Canis lupus familiaris; settings: in vivo
hERG (KCNH2) = hERG (KCNH2) (Homo sapiens, UniProt Q12809); assay: Inhibition of human ERG at 10 uM
Chain of hERG (KCNH2) (Q12809 whole entry): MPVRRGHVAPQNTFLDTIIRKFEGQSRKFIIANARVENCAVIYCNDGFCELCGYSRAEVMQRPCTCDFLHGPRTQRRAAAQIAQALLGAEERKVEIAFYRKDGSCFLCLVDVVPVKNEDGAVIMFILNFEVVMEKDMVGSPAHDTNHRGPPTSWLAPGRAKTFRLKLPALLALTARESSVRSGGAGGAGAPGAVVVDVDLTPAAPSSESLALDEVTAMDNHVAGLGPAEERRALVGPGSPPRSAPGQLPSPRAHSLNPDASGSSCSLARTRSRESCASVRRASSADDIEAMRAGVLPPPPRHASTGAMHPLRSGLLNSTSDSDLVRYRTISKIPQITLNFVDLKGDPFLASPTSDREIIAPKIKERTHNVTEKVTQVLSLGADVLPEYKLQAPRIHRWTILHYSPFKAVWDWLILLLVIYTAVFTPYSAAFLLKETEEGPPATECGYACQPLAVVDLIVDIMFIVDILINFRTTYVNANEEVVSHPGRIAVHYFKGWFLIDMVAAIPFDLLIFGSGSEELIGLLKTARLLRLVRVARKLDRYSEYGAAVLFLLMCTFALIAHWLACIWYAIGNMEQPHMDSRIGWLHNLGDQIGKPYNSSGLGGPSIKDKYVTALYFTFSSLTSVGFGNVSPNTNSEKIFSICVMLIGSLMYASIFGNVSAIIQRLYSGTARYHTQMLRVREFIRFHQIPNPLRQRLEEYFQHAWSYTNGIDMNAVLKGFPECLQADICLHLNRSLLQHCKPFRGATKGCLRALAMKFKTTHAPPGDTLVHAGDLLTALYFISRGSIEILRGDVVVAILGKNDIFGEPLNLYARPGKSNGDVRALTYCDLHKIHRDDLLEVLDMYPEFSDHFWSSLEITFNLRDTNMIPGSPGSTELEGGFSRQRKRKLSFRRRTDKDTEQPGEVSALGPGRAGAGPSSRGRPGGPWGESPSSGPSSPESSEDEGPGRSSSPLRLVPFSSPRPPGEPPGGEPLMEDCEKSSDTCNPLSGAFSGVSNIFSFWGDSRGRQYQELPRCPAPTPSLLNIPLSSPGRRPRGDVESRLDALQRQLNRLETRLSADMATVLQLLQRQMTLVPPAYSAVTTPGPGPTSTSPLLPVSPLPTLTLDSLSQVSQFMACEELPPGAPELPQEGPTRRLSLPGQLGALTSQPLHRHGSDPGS

[3] = Oral bioavailability in mouse; assay type: ADME, organism-based; settings: in vivo
Homo sapiens [4] = assay: Drug metabolism in healthy human plasma assessed as formation of M1 metabolite at 35 to 105 mg, po; assay type: ADME, organism-based; settings: in vivo
[5] = Oral bioavailability in cynomolgus monkey; assay type: ADME, organism-based, Macaca fascicularis; settings: in vivo
Salmonella typhimurium [6] = assay: Toxicity in Salmonella typhimurium TA100 in absence of S9 fraction; assay type: organism-based; settings: salmonella enterica subsp. enterica serovar typhimurium
Salmonella typhimurium [7] = assay: Toxicity in Salmonella typhimurium TA98 in presence of S9 fraction; assay type: organism-based; settings: salmonella enterica subsp. enterica serovar typhimurium
Salmonella typhimurium [8] = assay: Toxicity in Salmonella typhimurium TA100 in presence of S9 fraction; assay type: organism-based; settings: salmonella enterica subsp. enterica serovar typhimurium
[9] = Oral bioavailability in rat compound administered as suspension in crystalline freebase in 0.5% (w/v) methylcellulose and 0.2% (w/v) polysorbate 80 in water; assay type: ADME, organism-based; settings: in vivo
[10] = Oral bioavailability in dog compound administered as solution in 60% polyethylene glycol 400 in water; assay type: ADME, organism-based, Canis lupus familiaris; settings: in vivo
[11] = Oral bioavailability in rat compound administered as solution in 20% (v/v) cremophor EL and 10% (v/v) ethanol in water; assay type: ADME, organism-based; settings: in vivo
[12] = Clearance in mouse; assay type: ADME, organism-based; settings: in vivo
[13] = Clearance in rat; assay type: ADME, organism-based; settings: in vivo
[14] = Oral bioavailability in dog compound administered as as suspension in crystalline freebase in 0.5% (w/v) methylcellulose and 0.2% (w/v) polysorbate 80 in water; assay type: ADME, organism-based, Canis lupus familiaris; settings: in vivo
Salmonella typhimurium [15] = assay: Toxicity in Salmonella typhimurium TA98 in absence of S9 fraction; assay type: organism-based; settings: salmonella enterica subsp. enterica serovar typhimurium
[16] = Solubility of the compound in fasted-state simulated intestinal fluid at pH 6.8; assay type: ADME
[17] = Clearance in cynomolgus monkey; assay type: ADME, organism-based, Macaca fascicularis; settings: in vivo
Homo sapiens [18] = assay: Drug metabolism in healthy human plasma treated with GDC-0834 at 35 to 105 mg, po; assay type: ADME, organism-based; settings: in vivo
[19] = molecular target: T1, Tyrosine-protein kinase BTK (Homo sapiens, UniProt Q06187)
T1 sequence (Q06187 whole entry): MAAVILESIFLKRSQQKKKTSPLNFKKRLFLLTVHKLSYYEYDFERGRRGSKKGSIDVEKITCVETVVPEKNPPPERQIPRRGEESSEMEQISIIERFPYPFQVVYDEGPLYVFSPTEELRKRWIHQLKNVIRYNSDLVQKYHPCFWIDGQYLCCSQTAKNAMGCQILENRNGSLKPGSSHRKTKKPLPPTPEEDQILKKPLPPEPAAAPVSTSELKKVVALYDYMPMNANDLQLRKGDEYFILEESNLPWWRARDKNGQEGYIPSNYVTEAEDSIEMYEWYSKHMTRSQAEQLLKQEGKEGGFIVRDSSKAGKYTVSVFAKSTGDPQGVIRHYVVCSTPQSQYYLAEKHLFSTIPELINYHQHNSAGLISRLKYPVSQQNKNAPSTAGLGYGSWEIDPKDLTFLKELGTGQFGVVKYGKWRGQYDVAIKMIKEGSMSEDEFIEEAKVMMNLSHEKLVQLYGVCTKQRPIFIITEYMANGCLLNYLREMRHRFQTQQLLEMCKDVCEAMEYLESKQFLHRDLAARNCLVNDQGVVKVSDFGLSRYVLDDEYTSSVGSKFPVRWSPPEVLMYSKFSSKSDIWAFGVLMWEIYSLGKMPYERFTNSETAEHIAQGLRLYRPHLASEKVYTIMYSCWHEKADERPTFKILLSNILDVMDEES

[20] = molecular target: T1, Tyrosine-protein kinase BTK; assay: Inhibition of BTK (unknown origin) after 1 hr by FRET assay

Chain of Tyrosine-protein kinase BTK (Mus musculus, UniProt P35991) (P35991 whole entry): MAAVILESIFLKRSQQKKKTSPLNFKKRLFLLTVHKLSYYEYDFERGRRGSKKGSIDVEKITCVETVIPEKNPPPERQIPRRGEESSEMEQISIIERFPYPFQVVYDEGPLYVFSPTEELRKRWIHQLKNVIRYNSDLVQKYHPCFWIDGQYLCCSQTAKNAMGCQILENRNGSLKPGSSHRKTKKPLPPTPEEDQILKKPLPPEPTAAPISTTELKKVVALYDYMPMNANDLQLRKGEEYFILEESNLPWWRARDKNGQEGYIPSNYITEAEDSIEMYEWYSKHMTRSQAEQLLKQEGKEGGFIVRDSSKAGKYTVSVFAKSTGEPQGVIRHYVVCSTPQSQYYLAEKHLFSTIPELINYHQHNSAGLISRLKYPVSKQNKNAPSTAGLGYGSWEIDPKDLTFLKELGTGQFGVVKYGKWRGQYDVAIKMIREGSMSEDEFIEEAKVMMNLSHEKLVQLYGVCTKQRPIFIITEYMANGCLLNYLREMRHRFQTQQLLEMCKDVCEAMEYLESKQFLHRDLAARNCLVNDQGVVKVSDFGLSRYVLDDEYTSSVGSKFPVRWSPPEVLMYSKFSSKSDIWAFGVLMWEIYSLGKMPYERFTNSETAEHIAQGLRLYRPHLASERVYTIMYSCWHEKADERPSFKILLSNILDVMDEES

Compound: Cc1c(NC(=O)c2cc3c(s2)CCOC3)cccc1-c1cn(C)c(=O)c(Nc2ccc(C(=O)N3CCOCC3)cc2)n1
IC50 [1]: 1300 nM

Compound: Cc1c(NC(=O)c2ccc(C(C)(C)C)s2)cccc1-c1cn(C)c(=O)c(Nc2ccc(C(=O)N3CCOCC3)cc2)n1
IC50 [1]: 490 nM

Compound: Cc1c(NC(=O)c2cc3c(s2)CCCC3)cccc1-c1cn(C)c(=O)c(Nc2ccc([C@@H]3C(=O)N(C)CCN3C)cc2)n1
clearance [2]: 14 mL/min/kg | inhibition at 10 µM (hERG (KCNH2)): 27% | bioavailability [3]: 18% | Drug metabolism (Homo sapiens [4]): metabolite_detected | bioavailability [5]: 16% | Activity (Salmonella typhimurium [6]): Non-toxic | Activity (Salmonella typhimurium [7]): Non-toxic | Activity (Salmonella typhimurium [8]): Non-toxic | bioavailability [9]: 16% | bioavailability [10]: 35% | bioavailability [11]: 35% | clearance [12]: 43 mL/min/kg | clearance [13]: 4.4 mL/min/kg | bioavailability [14]: 32% | Activity (Salmonella typhimurium [15]): Non-toxic | solubility [16]: 7 µg/mL (≈ 11.7 µM) | clearance [17]: 33 mL/min/kg

Compound: Cc1c(NC(=O)c2cnc(C(C)(C)C)cn2)cccc1-c1cn(C)c(=O)c(Nc2ccc(C(=O)N3CCOCC3)cc2)n1
IC50 [19]: 70 nM | IC50 [1]: 890 nM

Compound: Cc1c(NC(=O)c2cc3c(s2)CCCC3)cccc1-c1cn(C)c(=O)c(Nc2ccncn2)n1
bioavailability [11]: 37% | clearance [13]: 5.4 mL/min/kg

Compound: Cc1ccc(C(=O)Nc2cccc(-c3cn(C)c(=O)c(Nc4ccc(C(=O)N5CCOCC5)cc4)n3)c2C)cc1
IC50 [20]: 860 nM

Compound: Cc1c(NC(=O)c2cc3c(s2)CCCC3)cccc1-c1cn(C)c(=O)c(Nc2ccc(N3CC[C@@H](N(C)C)C3)cc2)n1
IC50 [1]: 800 nM

Compound: Cc1c(NC(=O)c2cc3c(s2)CCCC3)cccc1-c1cn(C)c(=O)c(Nc2ccc([C@H]3C(=O)N(C)CCN3C)cc2)n1
bioavailability [11]: 41% | clearance [13]: 11 mL/min/kg

Compound: Cc1c(NC(=O)c2cc3c(s2)CCCC3)cccc1-c1cn(C)c(=O)c(Nc2ccc(C3CCN(C)CC3)cc2)n1
bioavailability [11]: < 5% | clearance [13]: 111 mL/min/kg | IC50 [1]: 60 nM

Compound: Cc1c(NC(=O)c2cnc(C(C)(C)C)nc2)cccc1-c1cn(C)c(=O)c(Nc2ccc(C(=O)N3CCOCC3)cc2)n1
IC50 [19]: 270 nM | IC50 [1]: 3700 nM

Compound: Cc1c(NC(=O)c2ccc(C(C)(C)C)cc2)cccc1-c1cn(C)c(=O)c(Nc2ccc(C(=O)N3CCOCC3)cc2)n1
IC50 [1]: 150 nM

Compound: Cc1c(NC(=O)c2ccc(C3(C)CC3)cc2)cccc1-c1cn(C)c(=O)c(Nc2ccc(C(=O)N3CCOCC3)cc2)n1
IC50 [19]: 30 nM | IC50 [1]: 580 nM

Compound: Cc1c(NC(=O)c2cc3c(s2)CCCC3)cccc1-c1cn(C)c(=O)c(Nc2ccc3[nH]ccc3c2)n1
IC50 [1]: 1100 nM

The remaining lines, values ahead:

IC50 [1]: 23900 nM
Compound: Cc1c(NC(=O)c2cc3c(s2)CCCC3)cccc1-c1cn(C)c(=O)c(Nc2ccc(-c3ncc[nH]3)cc2)n1

bioavailability [11]: 53% | clearance [13]: 9.2 mL/min/kg | IC50 [1]: 5000 nM
Compound: Cc1c(NC(=O)c2cc3c(s2)CCCC3)cccc1-c1cn(C)c(=O)c(Nc2cccnc2)n1

Drug metabolism (Homo sapiens [18]): metabolite_detected
Compound: Cc1c(N)cccc1-c1cn(C)c(=O)c(Nc2ccc([C@@H]3C(=O)N(C)CCN3C)cc2)n1

IC50 [19]: 50 nM
Compound: Cc1c(NC(=O)c2ncc(C(C)(C)C)cn2)cccc1-c1cn(C)c(=O)c(Nc2ccc(C(=O)N3CCOCC3)cc2)n1

IC50 [19]: 130 nM | IC50 [1]: 3500 nM
Compound: Cc1c(NC(=O)c2ccc(C(C)(C)C)nc2)cccc1-c1cn(C)c(=O)c(Nc2ccc(C(=O)N3CCOCC3)cc2)n1

IC50 [19]: 150 nM | IC50 [1]: 2800 nM
Compound: Cc1c(NC(=O)c2ccc(C(C)(C)O)cc2)cccc1-c1cn(C)c(=O)c(Nc2ccc(C(=O)N3CCOCC3)cc2)n1

IC50 [1]: 1300 nM
Compound: Cc1c(NC(=O)c2cc3c(s2)CCCC3)cccc1-c1cn(C)c(=O)c(Nc2ccn3ccnc3c2)n1

IC50 [19]: 90 nM | IC50 [1]: 1100 nM
Compound: Cc1c(NC(=O)c2ccc([Si](C)(C)C)cc2)cccc1-c1cn(C)c(=O)c(Nc2ccc(C(=O)N3CCOCC3)cc2)n1

bioavailability [11]: 29% | clearance [13]: 6 mL/min/kg | IC50 [1]: 230 nM
Compound: Cc1c(NC(=O)c2cc3c(s2)CCCC3)cccc1-c1cn(C)c(=O)c(Nc2ccc(C(=O)N3CCOCC3)cc2)n1

IC50 [20]: 225 nM
Compound: CCc1ccc(C(=O)Nc2cccc(-c3cn(C)c(=O)c(Nc4ccc(C(=O)N5CCOCC5)cc4)n3)c2C)cc1

IC50 [19]: 40 nM | IC50 [1]: 80 nM
Compound: CCC(C)(C)c1ccc(C(=O)Nc2cccc(-c3cn(C)c(=O)c(Nc4ccc(C(=O)N5CCOCC5)cc4)n3)c2C)cc1

IC50 [19]: 230 nM | IC50 [1]: 410 nM
Compound: Cc1c(NC(=O)c2ccc(N(C)C)cc2)cccc1-c1cn(C)c(=O)c(Nc2ccc(C(=O)N3CCOCC3)cc2)n1

IC50 [20]: 4600 nM
Compound: Cc1c(NC(=O)c2ccccc2)cccc1-c1cn(C)c(=O)c(Nc2ccc(C(=O)N3CCOCC3)cc2)n1
